Source: patent publication US20020137929A1, “1 - (3-heterocyclylphenyl) isothiourea, -isourea, -guanidine and -amidine herbicidal agents” (Intellectual Property Department, BASF Aktiengesellschaft, priority 1998, published 2002)

Columns and labels:
ABUTH (Velvetleaf) [1] = experiment: Postemergence herbicidal evaluation; assay type: in vivo, Abutilon theophrasti; conditions: postemergence
Summary of the method: (§1)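 First, seedlings were raised for around two weeks. Next, test material in 50/50 acetone/water containing 0.5% TWEEN 20 was sprayed through a nozzle at 40 psi, equivalent to about 0.0156–0.500 kg/ha. Finally, after 4–5 weeks in the greenhouse, plants were rated 0–9.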

[2] = tested on: IPOHE (Morningglory, Ivyleaf); experiment: Postemergence herbicidal evaluation; assay type: in vivo, Ipomoea hederacea; conditions: postemergence
Summary of the method: as §1

SETVI (Foxtail, Green) = experiment: Postemergence herbicidal evaluation; assay type: in vivo, Setaria viridis; conditions: postemergence
Summary of the method: as §1

[3] = tested on: GLXMAW (Soybean, Williams); experiment: Postemergence herbicidal evaluation; assay type: in vivo, Glycine max, (L.) Merr. cv Williams; conditions: postemergence
Summary of the method: as §1

ZEAMX (Corn, Field) = experiment: Postemergence herbicidal evaluation; assay type: in vivo, Zea mays; conditions: postemergence
Summary of the method: as §1

ABUTH (Velvetleaf) [4] = experiment: Preemergence herbicidal evaluation; assay type: in vivo, Abutilon theophrasti; conditions: rated 4-5 weeks after treatment
Summary of the method: (§2)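 Sown cups got a single aqueous acetone spray of test compound (roughly 0.0156–0.500 kg/ha) before seedlings emerged. Evaluation, 4–5 weeks on, used a 0–9 visual scale covering plant stand, vigor, size, malformation, chlorosis and general appearance compared with controls.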

AMBEL (Ragweed, Common) = experiment: Preemergence herbicidal evaluation; assay type: in vivo, Ambrosia artemisifolia; conditions: rated 4-5 weeks after treatment
Summary of the method: as §2

CASOB (Sicklepod) = experiment: Preemergence herbicidal evaluation; assay type: in vivo, Cassia obtusifolia; conditions: rated 4-5 weeks after treatment
Summary of the method: as §2

[5] = tested on: IPOHE (Morningglory, Ivyleaf); experiment: Preemergence herbicidal evaluation; assay type: in vivo, Ipomoea hederacea; conditions: rated 4-5 weeks after treatment
Summary of the method: as §2

ECHCG (Barnyardgrass) = experiment: Preemergence herbicidal evaluation; assay type: in vivo, Echinochloa crus-galli; conditions: rated 4-5 weeks after treatment
Summary of the method: as §2

[6] = tested on: ECHORC (Watergrass (Calif.)); experiment: Preemergence weed control under flooded paddy conditions; assay type: in vivo, Echinochloa oryzoides; conditions: rated 3-4 weeks after treatment
Summary of the method: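 First, seeds or propagules go into the top 0.5 cm of silt loam; next, water is held 1.5 to 3 cm over the soil; then compound (50/50 acetone/water) is pipetted into it at about 0.0313 to 0.500 kg/ha; finally plants are rated visually 0-9 after three to four weeks.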

CYPSE (Flatsedge) = experiment: as above; assay type: in vivo, Cyperus serotinus; conditions: rated 3-4 weeks after treatment
Summary of the method: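 Seeds or propagules sown in silt loam kept flooded 1.5-3 cm; compounds in 50/50 acetone/water pipetted into flood water at about 0.0313 to 0.500 kg/ha. Greenhouse; visual 0-9 rating versus untreated control 3-4 weeks after treatment.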

[7] = tested on: ECHORC (Watergrass (Calif.)); experiment: Postemergence weed control under flooded paddy conditions; assay type: in vivo, Echinochloa oryzoides; conditions: postemergence weeds, rated 3 to 4 weeks after treatment
Summary of the method: (§3)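 Injury ratings (0–9 scale covering stand, vigor, malformation, size, chlorosis and overall appearance versus control) were made three to four weeks after treatment. Test material, about 0.0313 to 0.500 kg/ha a.i. in 50/50 v/v aqueous/acetone, was added to flood water 1.5 to 3 cm deep over 3 to 5 cm weeds and 1.5 to 2.5 leaf rice.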

CYPIR (Rice Flatsedge) = experiment: as above; assay type: in vivo, Cyperus iria; conditions: postemergence weeds, rated 3 to 4 weeks after treatment
Summary of the method: as §3

COC(=O)C(Cc1ccc(Cl)cc1)N1C(=O)CSC1=Nc1cc(-n2c(=O)cc(C(F)(F)F)n(C)c2=O)c(F)cc1Cl (racemic) [Compound 77, Methyl α-(p-chlorobenzyl)-2-{{2-chloro-5-[3,6-dihydro-3-methyl-2,6-dioxo-4-(trifluoromethyl)-1(2H)-pyrimidinyl]-4-fluorophenyl}imino}-4-oxo-3-thiazolidineacetate, DL-]
4.5: ZEAMX herbicidal rating (ZEAMX (Corn, Field); rate 0.0630 kg/ha)
9.0: ABUTH herbicidal rating (ABUTH (Velvetleaf) [1]; rate 0.0158 kg/ha) | ABUTH herbicidal rating (ABUTH (Velvetleaf) [1]; rate 0.0315 kg/ha) | ABUTH herbicidal rating (ABUTH (Velvetleaf) [1]; rate 0.0630 kg/ha) | IPOHE herbicidal rating ([2]; rate 0.0158 kg/ha) | IPOHE herbicidal rating ([2]; rate 0.0315 kg/ha) | IPOHE herbicidal rating ([2]; rate 0.0630 kg/ha) | Preemergence herbicidal rating ABUTH (ABUTH (Velvetleaf) [4]; rate 0.0625 kg/ha) | Preemergence herbicidal rating ABUTH (ABUTH (Velvetleaf) [4]; rate 0.1250 kg/ha) | Preemergence herbicidal rating ABUTH (ABUTH (Velvetleaf) [4]; rate 0.2500 kg/ha) | ECHORC herbicidal effect rating ([6]; 0.0313 kg/ha) | ECHORC herbicidal effect rating ([6]; 0.0625 kg/ha) | ECHORC herbicidal effect rating ([6]; 0.1250 kg/ha) | ECHORC herbicidal effect rating ([6]; 0.2500 kg/ha) | Herbicidal rating ECHORC ([7]; Rate 0.0313 kg/ha) | Herbicidal rating ECHORC ([7]; Rate 0.0625 kg/ha) | Herbicidal rating ECHORC ([7]; Rate 0.1250 kg/ha) | Herbicidal rating ECHORC ([7]; Rate 0.2500 kg/ha)
2.0: Preemergence herbicidal rating AMBEL (AMBEL (Ragweed, Common); rate 0.0313 kg/ha) | Preemergence herbicidal rating AMBEL (AMBEL (Ragweed, Common); rate 0.1250 kg/ha) | Preemergence herbicidal rating IPOHE ([5]; rate 0.2500 kg/ha)
1.0: SETVI herbicidal rating (SETVI (Foxtail, Green); rate 0.0158 kg/ha) | Preemergence herbicidal rating ABUTH (ABUTH (Velvetleaf) [4]; rate 0.0156 kg/ha) | Preemergence herbicidal rating AMBEL (AMBEL (Ragweed, Common); rate 0.0625 kg/ha) | Preemergence herbicidal rating IPOHE ([5]; rate 0.0156 kg/ha)
3.5: GLXMAW herbicidal rating ([3]; rate 0.0158 kg/ha) | ZEAMX herbicidal rating (ZEAMX (Corn, Field); rate 0.0315 kg/ha)
6.0: SETVI herbicidal rating (SETVI (Foxtail, Green); rate 0.0315 kg/ha)
4.0: ZEAMX herbicidal rating (ZEAMX (Corn, Field); rate 0.0158 kg/ha) | CYPSE herbicidal effect rating (CYPSE (Flatsedge); 0.2500 kg/ha)
5.0: GLXMAW herbicidal rating ([3]; rate 0.0315 kg/ha) | GLXMAW herbicidal rating ([3]; rate 0.0630 kg/ha)
0.0: Preemergence herbicidal rating ABUTH (ABUTH (Velvetleaf) [4]; rate 0.0313 kg/ha) | Preemergence herbicidal rating AMBEL (AMBEL (Ragweed, Common); rate 0.0156 kg/ha) | Preemergence herbicidal rating CASOB (CASOB (Sicklepod); rate 0.0156 kg/ha) | Preemergence herbicidal rating CASOB (CASOB (Sicklepod); rate 0.0313 kg/ha) | Preemergence herbicidal rating CASOB (CASOB (Sicklepod); rate 0.0625 kg/ha) | Preemergence herbicidal rating CASOB (CASOB (Sicklepod); rate 0.1250 kg/ha) | Preemergence herbicidal rating CASOB (CASOB (Sicklepod); rate 0.2500 kg/ha) | Preemergence herbicidal rating IPOHE ([5]; rate 0.0313 kg/ha) | Preemergence herbicidal rating IPOHE ([5]; rate 0.0625 kg/ha) | Preemergence herbicidal rating IPOHE ([5]; rate 0.1250 kg/ha) | Preemergence herbicidal rating ECHCG (ECHCG (Barnyardgrass); rate 0.0156 kg/ha) | Preemergence herbicidal rating ECHCG (ECHCG (Barnyardgrass); rate 0.0313 kg/ha) | Preemergence herbicidal rating ECHCG (ECHCG (Barnyardgrass); rate 0.0625 kg/ha) | Preemergence herbicidal rating ECHCG (ECHCG (Barnyardgrass); rate 0.1250 kg/ha) | Preemergence herbicidal rating ECHCG (ECHCG (Barnyardgrass); rate 0.2500 kg/ha) | CYPSE herbicidal effect rating (CYPSE (Flatsedge); 0.0313 kg/ha) | CYPSE herbicidal effect rating (CYPSE (Flatsedge); 0.0625 kg/ha) | CYPSE herbicidal effect rating (CYPSE (Flatsedge); 0.1250 kg/ha) | Herbicidal rating CYPIR (CYPIR (Rice Flatsedge); Rate 0.0313 kg/ha) | Herbicidal rating CYPIR (CYPIR (Rice Flatsedge); Rate 0.0625 kg/ha) | Herbicidal rating CYPIR (CYPIR (Rice Flatsedge); Rate 0.1250 kg/ha) | Herbicidal rating CYPIR (CYPIR (Rice Flatsedge); Rate 0.2500 kg/ha)
7.0: SETVI herbicidal rating (SETVI (Foxtail, Green); rate 0.0630 kg/ha) | Preemergence herbicidal rating AMBEL (AMBEL (Ragweed, Common); rate 0.2500 kg/ha)
